Test results reported in paper PMC2951486 (Journal of Alzheimer's disease : JAD, 2010).

Key:
[1] = target: heparin-induced tau filaments (HITF) (Homo sapiens, UniProt P10636); experiment: Inhibition assay, displacement of [3H]-AST from HITF; conditions: inhibition of [3H]-AST binding; Ki values only in Fig. 2E
[2] = tested on: AD-PHF immobilized on CM5 sensor chip; experiment: Surface plasmon resonance on immobilized AD-PHFs; assay type: binding, human; conditions: SPR, AD-PHFs versus aggregated amyloid
[3] = target: AD-PHF (Homo sapiens, UniProt P10636); experiment: Double staining immunofluorescence of AD-PHFs with PHF-1 antibody and LNS; conditions: LNS 0.1 %
[4] = tested on: synthetic Aβ peptide (Aβ1–42) aggregates; experiment: Scatchard analysis of [3H]-AST binding to Aβ peptide aggregates; conditions: amyloid aggregates
[5] = target: AD-PHFs (Homo sapiens, UniProt P10636); experiment: Inhibition assay, displacement of [3H]-AST from AD-PHFs; conditions: inhibition of [3H]-AST binding; Ki values only in Fig. 2E
[6] = Parallel artificial membrane permeability assay; conditions: PAMPA, pH 7.4

Sequence of heparin-induced tau filaments (HITF) (P10636 1-441 isoform P10636-8): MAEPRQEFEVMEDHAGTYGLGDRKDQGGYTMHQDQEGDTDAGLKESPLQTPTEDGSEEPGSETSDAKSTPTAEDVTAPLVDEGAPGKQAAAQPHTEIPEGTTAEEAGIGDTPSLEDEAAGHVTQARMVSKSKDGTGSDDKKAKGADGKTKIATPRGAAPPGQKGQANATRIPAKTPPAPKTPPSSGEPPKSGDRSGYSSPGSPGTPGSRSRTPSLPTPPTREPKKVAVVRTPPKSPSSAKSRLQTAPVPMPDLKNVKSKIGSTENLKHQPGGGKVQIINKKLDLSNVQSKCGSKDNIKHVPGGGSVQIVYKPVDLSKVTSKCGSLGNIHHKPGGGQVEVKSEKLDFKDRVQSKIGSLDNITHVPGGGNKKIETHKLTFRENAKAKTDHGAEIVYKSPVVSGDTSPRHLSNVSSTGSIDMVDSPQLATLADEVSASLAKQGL
Sequence of AD-PHF (P10636 623-758 limits assumed): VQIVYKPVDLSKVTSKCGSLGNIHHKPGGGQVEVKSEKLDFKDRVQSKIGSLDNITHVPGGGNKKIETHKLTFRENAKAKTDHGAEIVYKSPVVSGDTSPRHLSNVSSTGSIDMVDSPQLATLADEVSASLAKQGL
Sequence of AD-PHFs (P10636 623-758 limits assumed): as above

Which results are given for `Cc1c(OCC(F)(F)F)ccnc1C[S+]([O-])c1nc2ccccc2[nH]1` (stereo not shown) [LNS, lansoprazole]?
affinity for HITF (relative Ki within the series) [1]: highest affinity for HITF; response curves (RU) on AD-PHFs surface compared to amyloid surface [2]: at least five times higher; staining of AD-PHF compared with PHF-1 immunostaining [3]: colocalization of the signals from LNS and PHF-1 mAb

For `COc1ccc(CCN2CCC(Nc3nc4ccccc4n3Cc3ccc(F)cc3)CC2)cc1` [AST, astemizole], which “ratio Bmax/Kd” value [4] is on record?
Its value is 0.06.

What about the “affinity for AD-PHFs (relative Ki within the series)” value [5] of the same compound?
The value was “highest affinity for AD-PHFs”.

What about the “response curves (RU) on AD-PHFs surface compared to amyloid surface” value [2] of the same compound?
Its value is “at least five times higher”.

What about the Papp at 16 h [6] of the same compound?
Its Papp at 16 h is 145 ×10⁻⁶ cm/s.
